In patent publication US11479551B2, “MTA-cooperative PRMT5 inhibitors” (Mirati Therapeutics, Inc., priority 2019, dated 2022):
Read-outs that look alike come from different tables or passages of the source.

Columns and labels:
[1] = biological target: T1, PRMT5/MEP50 complex (Homo sapiens (Human), UniProt O14744); assay: PRMT5:MEP50 HotSpot Assay (full-length histone H2A substrate, plus and minus MTA); format: biochemical; conditions: in the presence of 2 μM MTA
Outline: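 Radiometric filter-binding format using recombinant full-length histone H2A as substrate. After the reaction was stopped, mixtures went onto filter paper and tritiated H2A was quantified by scintillation counting.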

[2] = biological target: T1, PRMT5/MEP50 complex; assay: PRMT5:MEP50 FlashPlate Assay (histone H4 peptide substrate, plus and minus MTA); format: biochemical
Protocol: The PRMT5 inhibitory activity of compounds of the present invention was determined using either a PRMT5:MEP50 FlashPlate Assay (Reaction Biology Corporation) or a PRMT5:MEP50 HotSpot Assay (Reaction Biology Corporation).
1. PRMT5:MEP50 FlashPlate Assay

[3] = test system: HCT116 homozygous MTAP knockout cells; assay: Proliferation assay (CellTiter-Glo, 10 days of treatment), HCT116 MTAP knockout; format: cell-based; conditions: read-out: Proliferation HCT116MTAP_KO IC50
Outline: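 Cells (250/well) seeded in McCoy's 5A with 10% FBS, then treated the next day with a PRMT5 inhibitor dose response at 37 °C, 5% CO2. On day 6 they were split 1:10 into fresh medium with the same compound concentration. CellTiter-Glo viability was read on day 11 and IC50 taken after 10 days of treatment.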

[4] = test system: PRMT5-dependent Symmetric Di-methyl Arginine signal in HCT116 homozygous MTAP knockout cells; assay: SYM11 In-Cell Western, HCT116 MTAP knockout; format: cell-based; conditions: HCT116 homozygous MTAP knockout cells, 4 days of treatment, SYM11/DRAQ5 ratio, read-out: In-cell-Western (SYM11) HCT116 MTAP_KO IC50
[5] = test system: PRMT5-dependent Symmetric Di-methyl Arginine signal in HCT116 parental cells; assay: SYM11 In-Cell Western, HCT116 parental; format: cell-based; conditions: Homo sapiens, HCT-116, 96 h, 4 days of treatment, SYM11/DRAQ5 ratio
Protocol: Control samples were analyzed in parallel.
Briefly, on Day 0, 2,000 HCT116 parental or HCT116 homozygous MTAP knockout cells were seeded in 96 well plates in McCoy's 5A supplemented with 10% fetal bovine serum and pen/strep and the cells were incubated overnight at 37° C. plus 5% CO2. The following day, cells were treated with DMSO vehicle control or a dose response of PRMT5 inhibitors, and incubated at 37° C. plus 5% CO^2 for four days.
After 4 days of treatment, the cells were fixed by adding 50 μl of 4% paraformaldehyde solution to each well and the cells were incubated for 20 min at room temperature. The paraformaldehyde solution was removed, 150 μl of ice-cold methanol was added and the plate was placed −20° C. for 10 minutes. The methanol was removed, 150 μl of Odyssey Blocking buffer+0.05% Tween20 was added and the plate was incubated at room temperature with shaking for one hour.
The primary SYM11 antibody solution was removed by aspiration and the wells were washed three consecutive times with phosphate buffered saline containing 0.1% Tween-20 (PBST).
The secondary antibody solution was removed by aspiration and the wells were washed three consecutive times with PB ST.
The SYM11 signal and the DRAQ5 signal were quantified using a Li-Cor Odyssey machine reading at […], respectively. The SYM11/DRAQ5 ratio was used to calculate the inhibition of Symmetric Dimethyl Arginine as percent of DMSO control.

[6] = IC50 + 2 μM MTA (nM), in the presence of 2 μM MTA
[7] = in the absence of MTA, read-out: IC50

T1 sequence (O14744 2-637): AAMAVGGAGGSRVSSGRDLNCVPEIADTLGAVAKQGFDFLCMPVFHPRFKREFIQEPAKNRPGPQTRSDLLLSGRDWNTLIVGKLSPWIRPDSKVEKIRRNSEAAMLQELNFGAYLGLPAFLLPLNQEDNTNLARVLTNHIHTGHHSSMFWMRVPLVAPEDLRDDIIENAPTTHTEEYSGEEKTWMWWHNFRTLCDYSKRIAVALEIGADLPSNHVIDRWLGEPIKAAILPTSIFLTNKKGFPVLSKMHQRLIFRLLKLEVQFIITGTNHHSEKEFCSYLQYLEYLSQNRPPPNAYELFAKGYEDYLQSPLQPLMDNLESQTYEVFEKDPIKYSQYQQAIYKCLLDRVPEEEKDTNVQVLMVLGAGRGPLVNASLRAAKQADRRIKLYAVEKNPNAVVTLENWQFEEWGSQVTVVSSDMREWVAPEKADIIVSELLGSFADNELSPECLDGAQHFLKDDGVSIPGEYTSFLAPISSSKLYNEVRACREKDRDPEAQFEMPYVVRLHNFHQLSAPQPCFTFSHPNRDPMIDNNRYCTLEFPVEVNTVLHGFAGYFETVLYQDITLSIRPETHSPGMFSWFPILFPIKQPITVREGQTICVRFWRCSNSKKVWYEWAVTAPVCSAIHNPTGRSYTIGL
T1 sequence (Q9BQA1 2-342 partner): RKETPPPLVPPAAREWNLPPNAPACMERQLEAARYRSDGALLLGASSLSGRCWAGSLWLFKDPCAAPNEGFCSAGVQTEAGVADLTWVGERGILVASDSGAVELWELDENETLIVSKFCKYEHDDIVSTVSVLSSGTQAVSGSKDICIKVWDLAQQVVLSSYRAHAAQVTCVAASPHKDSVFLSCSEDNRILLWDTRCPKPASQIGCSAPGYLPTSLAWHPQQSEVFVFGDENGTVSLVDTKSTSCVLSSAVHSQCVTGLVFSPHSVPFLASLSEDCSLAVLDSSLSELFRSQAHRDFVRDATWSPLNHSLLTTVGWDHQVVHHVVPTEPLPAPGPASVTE

| Compound | IC50 ([1]; IC50 + 2 μM MTA) [nM] | IC50 [2, 6] [nM] | IC50 [3] [nM] | IC50 [4] [nM] | IC50 ([1]; read-out: IC50 + 2 μM MTA) [nM] | IC50 [2, 7] [nM] | IC50 ([3]; Homo sapiens, HCT-116, 240 h) [nM] | IC50 [5] [nM] | IC50 ([4]; Homo sapiens, HCT-116, 96 h) [nM] |
| --- | --- | --- | --- | --- | --- | --- | --- | --- | --- |
| CC(N)c1n[nH]c(=O)c2ccc(-c3cnn(C)c3-c3cccc(Cl)c3C#N)cc12 (single isomer, unassigned) [Example 9-2, 2-[4-[4-(1-aminoethyl)-1-oxo-2H-phthalazin-6-yl]-2-methyl-pyrazol-3-yl]-6-chloro-benzonitrile] | > 10000 | > 10000 | > 10000 | > 1000 | – | – | – | – | – |
| Cn1ncc(-c2ccc3c(=O)[nH]nc(CN)c3c2)c1-c1c(C#N)cc2ccccc2c1Cl (single isomer, unassigned) [Example 16-5] | – | – | 2850 | 272 | 994 | – | – | – | – |
| Cn1ncc(-c2ccc3c(=O)[nH]nc(CN)c3c2)c1-c1c(C#N)cc2ccccc2c1Cl (single isomer, unassigned) [Example 16-6] | – | – | 64 | 20 | 28 | – | – | – | – |
| Cn1ncc(-c2ccc3c(=O)[nH]nc(CN)c3c2)c1-c1ccc(Cl)cc1C#N [Example 4-101, 2-(4-(4-(aminomethyl)-1-oxo-1,2-dihydrophthalazin-6-yl)-1-methyl-1H-pyrazol-5-yl)-5-chlorobenzonitrile] | 892 | 0.5 | – | – | – | 17 | 2310 | 6670 | 376 |
| Cn1ncc(-c2ccc3c(=O)[nH]nc(CN)c3c2)c1-c1cc(Cl)ccc1C#N [Example 4-103, 2-(4-(4-(aminomethyl)-1-oxo-1,2-dihydrophthalazin-6-yl)-1-methyl-1H-pyrazol-5-yl)-4-chlorobenzonitrile] | – | 0.5 | – | – | – | 115 | 4390 | 6670 | 255 |
| Cn1ncc(-c2ccc3c(=O)[nH]nc(CN)c3c2)c1-c1ccc2ccccc2c1Cl [Example 4-181, 4-(aminomethyl)-6-(5-(1-chloronaphthalen-2-yl)-1-methyl-1H-pyrazol-4-yl)phthalazin-1(2H)-one] | 401 | – | – | – | – | – | 450 | – | 25 |
| Cn1ncc(-c2ccc3c(=O)[nH]nc(CN)c3c2)c1CC(C#N)c1ccccc1 (stereo not shown) [Example 4-183, 3-(4-(4-(aminomethyl)-1-oxo-1,2-dihydrophthalazin-6-yl)-1-methyl-1H-pyrazol-5-yl)-2-phenylpropanenitrile] | 2770 | – | – | – | – | – | 897 | – | 324 |
| Cn1ncc(-c2c(-c3ccc4c(=O)[nH]nc(CN)c4c3)cnn2C)c1Cl [Example 4-185, 4-(aminomethyl)-6-(5′-chloro-1′,2-dimethyl-1′H,2H-[3,4′-bipyrazol]-4-yl)phthalazin-1(2H)-one] | 1160 | – | – | – | – | – | 3020 | – | 167 |
| Cn1ncc(-c2c(-c3ccc4c(=O)[nH]nc(CN)c4c3)cnn2C)c1C#N [Example 4-186, 4-(4-(aminomethyl)-1-oxo-1,2-dihydrophthalazin-6-yl)-1′,2-dimethyl-1′H,2H-[3,4′-bipyrazole]-5′-carbonitrile] | 2310 | – | – | – | – | – | 5780 | – | 5110 |
| NCc1n[nH]c(=O)c2ccc(-c3cnc4[nH]cc(-c5ccccc5)c4c3)cc12 [Example 4-190, 4-(aminomethyl)-6-(3-phenyl-1H-pyrrolo[2,3-b]pyridin-5-yl)phthalazin-1(2H)-one] | 278 | – | – | – | – | – | 1980 | > 3330 | > 3330 |
| NCc1n[nH]c(=O)c2ccc(-c3cnc4ccc(-c5ccccc5)nn34)cc12 [Example 4-191, 4-(aminomethyl)-6-(6-phenylimidazo[1,2-b]pyridazin-3-yl)phthalazin-1(2H)-one] | 612 | – | – | – | – | – | 1520 | – | 911 |
| Cn1ncc(-c2ccc3c(=O)[nH]nc(CN)c3c2)c1-c1cc(C#N)c2ccccc2c1C#N [Example 4-207, 2-(4-(4-(aminomethyl)-1-oxo-1,2-dihydrophthalazin-6-yl)-1-methyl-1H-pyrazol-5-yl)naphthalene-1,4-dicarbonitrile] | – | – | – | – | – | – | 98 | > 10000 | 3 |
| Cn1ncc(-c2ccc3c(=O)[nH]nc(CN)c3c2)c1-c1cccc2c1COC2 [Example 4-220, 4-(aminomethyl)-6-(5-(1,3-dihydroisobenzofuran-4-yl)-1-methyl-1H-pyrazol-4-yl)phthalazin-1(2H)-one] | 567 | – | – | – | – | – | 5160 | – | 212 |
| Cn1ncc(-c2ccc3c(=O)[nH]nc(CN)c3c2)c1-c1cccc2c1COCC2 [Example 4-221, 4-(aminomethyl)-6-(5-(isochroman-8-yl)-1-methyl-1H-pyrazol-4-yl)phthalazin-1(2H)-one] | 501 | – | – | – | – | – | 2380 | – | 196 |
| Cn1ncc(-c2ccc3c(=O)[nH]nc(CN)c3c2)c1-c1cccc2ccncc12 [Example 4-222, 4-(aminomethyl)-6-(5-(isoquinolin-8-yl)-1-methyl-1H-pyrazol-4-yl)phthalazin-1(2H)-one] | 255 | – | – | – | – | – | 5340 | – | 296 |
| Cn1ncc(-c2ccc3c(=O)[nH]nc(CN)c3c2)c1-c1ccc(OC2CC2)c2cncn12 [Example 4-238, 4-(aminomethyl)-6-(5-(8-cyclopropoxyimidazo[1,5-a]pyridin-5-yl)-1-methyl-1H-pyrazol-4-yl)phthalazin-1(2H)-one] | 2310 | – | – | – | – | – | 1940 | – | 843 |
| CCOc1ccc(-c2c(-c3ccc4c(=O)[nH]nc(CN)c4c3)cnn2C)cc1 [Example 4-254, 4-(aminomethyl)-6-[5-(4-ethoxyphenyl)-1-methyl-pyrazol-4-yl]-2H-phthalazin-1-one] | – | – | – | – | – | – | 2170 | 3330 | 377 |
| Cn1ncc(-c2ccc3c(=O)[nH]nc([C@@H](N)C(F)F)c3c2)c1-c1ccc2ccccc2c1C#N [Example 9-7, 2-[4-[4-[(1R)-1-amino-2,2-difluoro-ethyl]-1-oxo-2H-phthalazin-6-yl]-2-methyl-pyrazol-3-yl]naphthalene-1-carbonitrile] | 2560 | – | – | – | – | – | > 10000 | – | > 1000 |
| Cn1ncc(-c2ccc3c(=O)[nH]nc(CN)c3c2)c1-c1ccc(-c2cnsc2)cc1C#N [Example 12-4, 2-[4-[4-(aminomethyl)-1-oxo-2H-phthalazin-6-yl]-2-methyl-pyrazol-3-yl]-5-isothiazol-4-yl-benzonitrile] | 176 | – | – | – | – | – | 4370 | – | 436 |
| Cn1cc(-c2ccc(-c3c(-c4ccc5c(=O)[nH]nc(CN)c5c4)cnn3C)c(C#N)c2)cn1 [Example 12-5, 2-(4-(4-(aminomethyl)-1-oxo-1,2-dihydrophthalazin-6-yl)-1-methyl-1H-pyrazol-5-yl)-5-(1-methyl-1H-pyrazol-4-yl)benzonitrile] | 112 | – | – | – | – | – | 3170 | – | 456 |
| Cn1cc(-c2ccc(C#N)c(-c3c(-c4ccc5c(=O)[nH]nc(CN)c5c4)cnn3C)c2)cn1 [Example 12-6, 2-[4-[4-(aminomethyl)-1-oxo-2H-phthalazin-6-yl]-2-methyl-pyrazol-3-yl]-4-(1-methylpyrazol-4-yl)benzonitrile] | 730 | – | – | – | – | – | 7470 | – | 380 |
| Cn1ncc(-c2ccc3c(=O)[nH]nc(CN)c3c2)c1-c1cc(-c2cnsc2)ccc1C#N [Example 12-7, 2-(4-(4-(aminomethyl)-1-oxo-1,2-dihydrophthalazin-6-yl)-1-methyl-1H-pyrazol-5-yl)-4-(isothiazol-4-yl)benzonitrile] | 603 | – | – | – | – | – | 4980 | – | 427 |
| Cn1ncc(-c2ccc3c(=O)[nH]nc(CN)c3c2)c1-c1cc(C2CCOC2)ccc1C#N (stereo not shown) [Example 12-8, 2-[4-[4-(aminomethyl)-1-oxo-2H-phthalazin-6-yl]-2-methyl-pyrazol-3-yl]-4-THF-3-yl-benzonitrile] | 3860 | – | – | – | – | – | 7800 | – | 2860 |
